From ChEMBL document CHEMBL5727929, “CXCR4 inhibitors and uses thereof” (2020)
pIC50: −log10 of the molar value.

Assay: Binding Inhibition Assay: Jurkat cells expressing CXCR4 were washed once with assay buffer (Hanks' balanced salt solution with 20 mM HEPES buffer and 0.2% bovine serum albumin, pH 7.4) and then incubated for 15 min at room temperature with the test compounds diluted in assay buffer at dose-dependent concentrations. Subsequently, CXCL12-AF647 (25 ng/mL) was added to the compound-incubated cells. The cells were incubated for 30 min at room temperature. Thereafter, the cells were washed twice in assay buffer, fixed in 1% paraformaldehyde in PBS, and analyzed on the FL4 channel of a FACSCalibur flow cytometer equipped with a 635-nm red diode lase.

- pIC50: 7.00 to 11.00
Compound: CC[C@H](O)c1c([C@H]2CCC[C@@H](c3ncccc3C)N2C)nc2cccc(N3CCN(C)CC3)n12
